The text below walks through data of patent publication USRE50528E1, “Compounds and compositions for modulating EGFR mutant kinase activities” (Yuhan Corporation, priority 2014, dated 2025).

One assay deals with T1, EGFR mutant L858R/T790M (Homo sapiens, UniProt P00533, L858R/T790M).
T1 construct: truncated human JAK3, EGFR mutants such as del E746-A750; purchased Carna Biosciences
The experiment in a line: Kinase inhibition assay, EGFR L858R/T790M.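 Also: truncated human enzyme preincubated two hours with compound, then one hour with one millimolar ATP and ULight-PolyGT peptide, Europium-labeled antibody detection, IC50.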 The class given is biochemical. To be noted: read-out: EGFR mutants L858R/T790M.

In another assay the target is T2, JAK3 (Homo sapiens, UniProt P52333).
T2 construct: EGFR and JAK3 (JH1domain-catalytic) kinases, and mutant forms thereof; purchased Carna Biosciences
Kind of assay: Kinase inhibition assay, JAK3.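 Also: IC50 against purified truncated human JAK3 preincubated with compound, then reacted with ATP and ULight-Jak1 peptide, phosphorylation read by Europium-labeled antibody LANCE detection.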 To be noted: biochemical potency.

Another assay addresses T3, EGFR mutant Del19/T790M (Homo sapiens, UniProt P00533, DEL746-750/T790M).
T3 construct: truncated human JAK3, EGFR mutants such as del E746-A750; purchased Carna Biosciences
Kind of assay: Kinase inhibition assay, EGFR del E746-A750/T790M. To be noted: read-out: EGFR mutants Del19/T790M. The class given is biochemical.

The test system of assay [1] is PC9 (EGFR del E746-A750 mutant). The experiment in a line: Cell viability assay, PC9.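 As to all read-outs here: NSCLC PC9 cells, whose viability relies on EGFR del E746-A750, exposed to serially diluted compound for 72 h at 37 °C, ATPLite read-out, IC50, H2073 as EGFR wildtype line.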 Type of assay: cell-based. To be noted: for Selectivity over wildtype, Wildtype vs mutant H2073/PC9 (fold): cellular potency ratio; for IC50: cellular potency, 72-hour incubation, ATPLite, read-out: EGFR Mutants PC9. Background: Cellular ATP, detected with luciferase, serves as a proxy for viable cell number.

A further assay addresses T4, SYK (Homo sapiens, UniProt P43405).
T4 construct: Purified human, full-length SYK, KDR; purchased Carna Biosciences
Kind of assay: Kinase inhibition assay, SYK.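 Also: purified full-length human SYK pre-incubated 30 min with compound, then ULight-TK peptide phosphorylation for 1 h, detected with Europium-labeled antibody in Lance buffer.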 The settings on record: biochemical potency. The class given is biochemical.

Assay [2] relates to H1975 (EGFR L858R/T790M mutant). Kind of assay: Cell viability assay, H1975.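 As to all read-outs here: NSCLC cells whose survival relies on EGFR L858R/T790M, exposed 72 h to serially diluted compound, ATP-based viability readout, with the H2073 line (wildtype EGFR dependent) as wildtype comparator.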 The settings on record: for IC50: Homo sapiens, NCI-H1975, cellular potency, 72-hour incubation, ATPLite, read-out: EGFR Mutants H1975; for Selectivity over wildtype, Wildtype vs mutant H2073/H1975 (fold): cellular potency ratio. Type of assay: cell-based.
The next assay deals with H2073 (EGFR wildtype). The experiment in a line: Cell viability assay, H2073.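 Also: NSCLC cell line whose survival relies on wildtype EGFR, treated with serially diluted compound, cytotoxic effect judged from remaining cell viability.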 Type of assay: cell-based. The settings on record: NCI-H2073; cellular potency; 72-hour incubation; ATPLite.
In a further assay the target is T5, EGFR mutant T790M (Homo sapiens, UniProt P00533, T790M).
T5 construct: truncated human JAK3, EGFR mutants such as del E746-A750; purchased Carna Biosciences
Kind of assay: Kinase inhibition assay, EGFR mutant T790M.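 Also: truncated human EGFR mutant enzyme preincubated two hours with compound, then ATP plus ULight-PolyGT peptide for one hour, Europium-labeled antibody LANCE detection, IC50.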 To be noted: biochemical potency.

The next assay deals with T6, KDR (Homo sapiens, UniProt P35968).
T6 construct: Purified human, full-length SYK, KDR; purchased Carna Biosciences
Kind of assay: Kinase inhibition assay, KDR.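 Also: purified full-length human KDR, 30 min preincubation with compound, then 1 h reaction with ATP and Ulight-Jak1 peptide substrate, phosphorylation read by Lance Europium antibody detection.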 The class given is biochemical. To be noted: biochemical potency.

The target of assay [3] is T7, EGFR mutant Del19 (E746-A750) (Homo sapiens, UniProt P00533, DEL746-750).
T7 construct: truncated human JAK3, EGFR mutants such as del E746-A750; purchased Carna Biosciences
The experiment in a line: Kinase inhibition assay, EGFR del E746-A750.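 Also: truncated human EGFR mutant kinase, two-hour preincubation with compound, then one-hour reaction with ATP and ULight-PolyGT peptide, LANCE Europium-antibody phosphorylation readout, IC50.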 The class given is biochemical. The settings on record: read-out: EGFR mutants Del19 (E746-A750).

For another assay, the target named is T8, EGFR mutant L858R (Homo sapiens, UniProt P00533, L858R).
T8 construct: truncated human JAK3, EGFR mutants such as del E746-A750; purchased Carna Biosciences
Kind of assay: Kinase inhibition assay, EGFR L858R.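 Also: truncated human EGFR L858R kinase with compound preincubation, ULight-PolyGT peptide phosphorylation read by Europium-antibody Lance detection, IC50.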 Type of assay: biochemical. To be noted: read-out: EGFR mutants L858R.

T7 sequence (P00533 with tags, fused parts or gaps DEL746-750 limits assumed): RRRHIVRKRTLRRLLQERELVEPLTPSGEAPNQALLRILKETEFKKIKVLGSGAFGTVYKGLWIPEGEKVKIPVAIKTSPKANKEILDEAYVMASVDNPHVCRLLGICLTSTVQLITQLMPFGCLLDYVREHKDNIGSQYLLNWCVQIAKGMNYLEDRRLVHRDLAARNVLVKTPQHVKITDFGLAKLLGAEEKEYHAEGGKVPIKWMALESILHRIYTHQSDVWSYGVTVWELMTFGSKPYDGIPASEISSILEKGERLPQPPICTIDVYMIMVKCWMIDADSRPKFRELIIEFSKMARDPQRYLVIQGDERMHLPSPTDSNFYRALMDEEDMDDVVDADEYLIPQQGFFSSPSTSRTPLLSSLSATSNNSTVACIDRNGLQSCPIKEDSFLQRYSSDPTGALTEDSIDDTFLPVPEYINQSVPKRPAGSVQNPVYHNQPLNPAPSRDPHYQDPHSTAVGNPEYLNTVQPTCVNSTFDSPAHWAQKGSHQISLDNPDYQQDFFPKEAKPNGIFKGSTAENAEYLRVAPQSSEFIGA
T6 sequence (P35968 20-1356): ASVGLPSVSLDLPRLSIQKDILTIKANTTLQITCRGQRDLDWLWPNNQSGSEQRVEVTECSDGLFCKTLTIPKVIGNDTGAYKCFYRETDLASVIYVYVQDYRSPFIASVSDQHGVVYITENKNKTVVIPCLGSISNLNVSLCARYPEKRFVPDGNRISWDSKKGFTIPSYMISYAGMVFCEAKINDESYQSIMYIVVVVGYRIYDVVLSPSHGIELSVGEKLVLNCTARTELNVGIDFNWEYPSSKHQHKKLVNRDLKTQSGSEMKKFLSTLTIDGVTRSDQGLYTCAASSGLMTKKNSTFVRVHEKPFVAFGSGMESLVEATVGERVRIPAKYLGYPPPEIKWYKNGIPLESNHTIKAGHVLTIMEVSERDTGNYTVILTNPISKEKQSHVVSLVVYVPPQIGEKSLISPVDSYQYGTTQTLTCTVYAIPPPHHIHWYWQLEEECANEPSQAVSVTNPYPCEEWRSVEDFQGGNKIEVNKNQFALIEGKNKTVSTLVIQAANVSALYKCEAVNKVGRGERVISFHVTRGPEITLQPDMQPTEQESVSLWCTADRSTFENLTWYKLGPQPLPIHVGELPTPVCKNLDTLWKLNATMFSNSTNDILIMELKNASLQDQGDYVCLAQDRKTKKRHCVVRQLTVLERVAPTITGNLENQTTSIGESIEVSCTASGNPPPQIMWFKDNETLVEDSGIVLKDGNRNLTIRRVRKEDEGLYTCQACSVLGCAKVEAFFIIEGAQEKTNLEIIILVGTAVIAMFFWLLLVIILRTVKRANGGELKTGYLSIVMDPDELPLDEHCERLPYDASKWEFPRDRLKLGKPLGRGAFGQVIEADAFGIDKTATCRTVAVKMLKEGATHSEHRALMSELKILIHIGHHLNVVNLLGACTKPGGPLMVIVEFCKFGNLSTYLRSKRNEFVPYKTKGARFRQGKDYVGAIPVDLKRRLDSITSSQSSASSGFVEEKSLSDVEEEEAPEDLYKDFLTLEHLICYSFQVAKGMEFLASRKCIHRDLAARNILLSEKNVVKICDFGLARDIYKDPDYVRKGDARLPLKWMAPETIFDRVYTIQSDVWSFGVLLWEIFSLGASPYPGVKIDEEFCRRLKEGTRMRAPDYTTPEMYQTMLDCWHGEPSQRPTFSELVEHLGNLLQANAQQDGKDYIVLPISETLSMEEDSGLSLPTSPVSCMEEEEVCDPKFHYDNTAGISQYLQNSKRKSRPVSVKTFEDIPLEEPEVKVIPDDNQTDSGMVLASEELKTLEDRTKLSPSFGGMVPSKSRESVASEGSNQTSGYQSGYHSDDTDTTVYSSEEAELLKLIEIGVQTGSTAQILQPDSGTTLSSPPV
T2 sequence (P52333 822-1111 limits assumed): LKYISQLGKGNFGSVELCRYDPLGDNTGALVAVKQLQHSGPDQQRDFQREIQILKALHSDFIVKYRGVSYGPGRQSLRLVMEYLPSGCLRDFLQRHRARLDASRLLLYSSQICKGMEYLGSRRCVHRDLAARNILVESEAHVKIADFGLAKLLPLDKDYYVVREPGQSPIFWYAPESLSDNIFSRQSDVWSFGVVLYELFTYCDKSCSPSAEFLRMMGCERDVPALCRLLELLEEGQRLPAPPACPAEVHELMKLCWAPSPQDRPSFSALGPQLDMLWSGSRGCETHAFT
T5 sequence (P00533 669-1210 T790M limits assumed): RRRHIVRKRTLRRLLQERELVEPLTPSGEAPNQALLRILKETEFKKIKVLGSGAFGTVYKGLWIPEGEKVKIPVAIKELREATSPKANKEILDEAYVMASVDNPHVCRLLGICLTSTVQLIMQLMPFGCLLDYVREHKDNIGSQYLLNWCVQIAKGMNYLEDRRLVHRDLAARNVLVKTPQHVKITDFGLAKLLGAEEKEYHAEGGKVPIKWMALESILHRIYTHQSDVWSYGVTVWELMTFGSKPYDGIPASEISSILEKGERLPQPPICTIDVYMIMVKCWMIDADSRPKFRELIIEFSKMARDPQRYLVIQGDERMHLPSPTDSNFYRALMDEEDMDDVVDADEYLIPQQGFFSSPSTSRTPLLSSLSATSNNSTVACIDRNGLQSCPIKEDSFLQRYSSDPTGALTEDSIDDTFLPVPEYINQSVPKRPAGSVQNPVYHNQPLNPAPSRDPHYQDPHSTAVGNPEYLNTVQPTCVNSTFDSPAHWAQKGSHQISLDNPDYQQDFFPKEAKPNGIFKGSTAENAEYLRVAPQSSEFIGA
T3 sequence (P00533 with tags, fused parts or gaps DEL746-750/T790M limits assumed): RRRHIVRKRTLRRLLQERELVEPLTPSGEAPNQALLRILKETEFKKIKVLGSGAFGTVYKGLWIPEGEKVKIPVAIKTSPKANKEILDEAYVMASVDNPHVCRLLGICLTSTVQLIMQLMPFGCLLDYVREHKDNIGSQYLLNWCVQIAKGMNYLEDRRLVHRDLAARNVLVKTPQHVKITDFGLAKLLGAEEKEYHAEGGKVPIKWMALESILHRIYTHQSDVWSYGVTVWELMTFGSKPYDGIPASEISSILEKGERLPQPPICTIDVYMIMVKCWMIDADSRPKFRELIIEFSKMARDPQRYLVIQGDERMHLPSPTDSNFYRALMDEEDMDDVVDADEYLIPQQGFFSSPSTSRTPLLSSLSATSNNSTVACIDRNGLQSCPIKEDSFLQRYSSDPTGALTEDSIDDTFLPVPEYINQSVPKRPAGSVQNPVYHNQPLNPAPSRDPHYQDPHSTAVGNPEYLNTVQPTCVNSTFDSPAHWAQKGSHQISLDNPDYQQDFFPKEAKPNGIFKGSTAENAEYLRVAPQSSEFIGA
T1 sequence (P00533 669-1210 T790M/L858R limits assumed): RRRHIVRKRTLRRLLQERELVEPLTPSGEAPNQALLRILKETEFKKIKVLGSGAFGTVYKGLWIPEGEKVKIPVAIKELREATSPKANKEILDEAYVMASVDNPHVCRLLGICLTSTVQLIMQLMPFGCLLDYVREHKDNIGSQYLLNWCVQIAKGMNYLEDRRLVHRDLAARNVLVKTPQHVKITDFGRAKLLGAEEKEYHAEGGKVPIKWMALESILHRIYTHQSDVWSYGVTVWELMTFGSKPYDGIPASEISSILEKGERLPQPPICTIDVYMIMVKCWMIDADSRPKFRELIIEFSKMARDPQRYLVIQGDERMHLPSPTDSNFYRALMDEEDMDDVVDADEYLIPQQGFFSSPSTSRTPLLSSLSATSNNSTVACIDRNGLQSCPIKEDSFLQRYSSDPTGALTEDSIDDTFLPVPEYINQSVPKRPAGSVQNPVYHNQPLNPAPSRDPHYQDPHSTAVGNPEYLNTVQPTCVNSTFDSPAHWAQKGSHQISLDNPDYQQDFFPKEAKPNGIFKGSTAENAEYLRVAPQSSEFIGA
T8 sequence (P00533 669-1210 L858R limits assumed): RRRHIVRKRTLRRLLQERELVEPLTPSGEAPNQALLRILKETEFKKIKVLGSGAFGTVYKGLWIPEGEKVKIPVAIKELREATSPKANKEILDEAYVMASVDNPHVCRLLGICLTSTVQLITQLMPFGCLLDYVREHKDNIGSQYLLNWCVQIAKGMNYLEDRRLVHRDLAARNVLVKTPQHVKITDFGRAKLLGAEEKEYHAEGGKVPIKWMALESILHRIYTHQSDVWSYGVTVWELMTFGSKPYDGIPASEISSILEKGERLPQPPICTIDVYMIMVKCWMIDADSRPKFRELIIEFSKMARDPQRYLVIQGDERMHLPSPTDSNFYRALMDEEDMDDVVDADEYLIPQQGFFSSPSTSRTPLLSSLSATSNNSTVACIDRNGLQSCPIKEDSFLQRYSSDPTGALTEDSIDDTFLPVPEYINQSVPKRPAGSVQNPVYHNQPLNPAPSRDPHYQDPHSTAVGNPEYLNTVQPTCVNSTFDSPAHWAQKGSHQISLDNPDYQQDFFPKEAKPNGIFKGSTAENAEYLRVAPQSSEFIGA

As to `C=CC(=O)Nc1cc(Nc2nccc(-n3cc(CN4CCC4)c(C4CC4)n3)n2)c(OC)cc1N1CCOCC1` [Compound 55, N-(5-(4-(4-(azetidin-1-ylmethyl)-3-cyclopropyl-1H-pyrazol-1-yl)pyrimidin-2-ylamino)-4-methoxy-2-morpholinophenyl)acrylamide], the IC50 is < 20 nM at EGFR mutant L858R/T790M; < 20 nM on JAK3; < 20 nM on EGFR mutant Del19/T790M; < 20 nM in assay [1]; > 1000 nM against SYK; 20 to 200 nM in assay [2]. Also, the IC50 was > 1000 nM with H2073 (EGFR wildtype); < 20 nM against EGFR mutant T790M; > 1000 nM against KDR; < 20 nM in assay [3]; < 20 nM on EGFR mutant L858R. Also, the “Selectivity over wildtype, Wildtype vs mutant H2073/PC9 (fold)” value (“Selectivity … vs mutant H2073/PC9 (fold)” below) in [1] is >200 fold. In addition, in [2], the “Selectivity over wildtype, Wildtype vs mutant H2073/H1975 (fold)” value (from here on “Selectivity … vs mutant H2073/H1975 (fold)”) was 101-200 fold.
Turning to `C=CC(=O)Nc1cc(Nc2ncc(C)c(-n3cc(CN(C)C)c(C)n3)n2)c(OC)cc1N1CCOCC1` [Compound 75, N-(5-(4-(4-((dimethylamino)methyl)-3-methyl-1H-pyrazol-1-yl)-5-methylpyrimidin-2-ylamino)-4-methoxy-2-morpholinophenyl)acrylamide], the IC50 was < 20 nM on EGFR mutant L858R/T790M; < 20 nM against JAK3; < 20 nM at EGFR mutant Del19/T790M; 20 to 200 nM in assay [1]; 20 to 200 nM at SYK; 20 to 200 nM in assay [2]. Further, the IC50 was > 1000 nM in the assay with H2073 (EGFR wildtype); < 20 nM against EGFR mutant T790M; > 1000 nM on KDR; < 20 nM in assay [3]; < 20 nM on EGFR mutant L858R. For the same compound, the “Selectivity … vs mutant H2073/PC9 (fold)” value in [1] is on record as 101-200 fold. Also, the “Selectivity … vs mutant H2073/H1975 (fold)” value in [2] is on record as 101-200 fold.
As to `C=CC(=O)Nc1cc(Nc2ncc(C)c(-n3cc(CN4CC(O)C4)cn3)n2)c(OC)cc1N1CCOCC1` [Compound 19, N-(5-(4-(4-((3-hydroxyazetidin-1-yl)methyl)-1H-pyrazol-1-yl)-5-methylpyrimidin-2-ylamino)-4-methoxy-2-morpholinophenyl)acrylamide], the IC50 at EGFR mutant L858R/T790M was < 20 nM; at JAK3, < 20 nM; on EGFR mutant Del19/T790M, < 20 nM; in assay [1], < 20 nM; against SYK it was 20 to 200 nM; in assay [2], 20 to 200 nM. Besides, the IC50 in the assay on H2073 (EGFR wildtype) was > 1000 nM; on EGFR mutant T790M, < 20 nM; at KDR, 201 to 1000 nM; in assay [3], < 20 nM; at EGFR mutant L858R it was < 20 nM. For the same compound, the “Selectivity … vs mutant H2073/PC9 (fold)” value in assay [1] is given as 100-200 fold. Moreover, the “Selectivity … vs mutant H2073/H1975 (fold)” value in assay [2] is on record as 20-100 fold.
In the case of `C=CC(=O)Nc1cc(Nc2ncc(C)c(-n3cc(CN4CC(O)C4)c(C)n3)n2)c(OC)cc1N1CCN(C)CC1` [Compound 29, N-(5-(4-(4-((3-hydroxyazetidin-1-yl)methyl)-3-methyl-1H-pyrazol-1-yl)-5-methylpyrimidin-2-ylamino)-4-methoxy-2-(4-methylpiperazin-1-yl)phenyl)acrylamide], the IC50 was < 20 nM on EGFR mutant L858R/T790M; < 20 nM against JAK3; < 20 nM on EGFR mutant Del19/T790M; 20 to 200 nM in [1]; 20 to 200 nM against SYK; 20 to 200 nM in assay [2]. For the same compound, the IC50 in the assay on H2073 (EGFR wildtype) is > 1000 nM; at EGFR mutant T790M it was < 20 nM; against KDR, > 1000 nM; in assay [3] it was < 20 nM; at EGFR mutant L858R, < 20 nM. For the same compound, the “Selectivity … vs mutant H2073/PC9 (fold)” value in assay [1] is <20 fold. For the same compound, in assay [2], the “Selectivity … vs mutant H2073/H1975 (fold)” value was <20 fold.
With `C=CC(=O)Nc1cc(Nc2ncc(Cl)c(-n3cc(CN4C[C@@H](O)[C@@H](O)C4)c(C)n3)n2)c(OC)cc1N1CCN(C)CC1` [Compound 54, N-(5-(5-chloro-4-(4-(((3R,4S)-3,4-dihydroxypyrrolidin-1-yl)methyl)-3-methyl-1H-pyrazol-1-yl)pyrimidin-2-ylamino)-4-methoxy-2-(4-methylpiperazin-1-yl)phenyl)acrylamide], the IC50 at EGFR mutant L858R/T790M is < 20 nM; against JAK3, < 20 nM; at EGFR mutant Del19/T790M, < 20 nM; in assay [1] it was 20 to 200 nM; against SYK it was > 1000 nM; in [2] it was 201 to 1000 nM. In addition, the IC50 is > 1000 nM with H2073 (EGFR wildtype); < 20 nM against EGFR mutant T790M; > 1000 nM at KDR; < 20 nM in assay [3]; 20 to 200 nM on EGFR mutant L858R. Moreover, the “Selectivity … vs mutant H2073/PC9 (fold)” value in assay [1] is given as 20-100 fold. Further, in assay [2], the “Selectivity … vs mutant H2073/H1975 (fold)” value is given as <20 fold.
Consider `C=CC(=O)Nc1cc(Nc2nccc(-n3cc(CN(C)C)c(C)n3)n2)c(OC)cc1N(C)C` [Compound 71, N-(2-(dimethylamino)-5-(4-(4-((dimethylamino)methyl)-3-methyl-1H-pyrazol-1-yl)pyrimidin-2-ylamino)-4-methoxyphenyl)acrylamide], for which the IC50 on EGFR mutant L858R/T790M is < 20 nM; against JAK3, < 20 nM; on EGFR mutant Del19/T790M, < 20 nM; in assay [1], < 20 nM; on SYK, 201 to 1000 nM; in assay [2], < 20 nM. Further, the IC50 was > 1000 nM with H2073 (EGFR wildtype); < 20 nM against EGFR mutant T790M; > 1000 nM on KDR; < 20 nM in [3]; < 20 nM at EGFR mutant L858R. In assay [1], the “Selectivity … vs mutant H2073/PC9 (fold)” value is >200 fold. In assay [2], the “Selectivity … vs mutant H2073/H1975 (fold)” value is on record as >200 fold.
For `C=CC(=O)Nc1cc(Nc2ncc(C)c(-n3cc(CN(C)C)c(C(C)C)n3)n2)c(OC)cc1N1CCOCC1` [Compound 124, N-(5-(4-(4-((dimethylamino)methyl)-3-isopropyl-1H-pyrazol-1-yl)-5-methylpyrimidin-2-ylamino)-4-methoxy-2-morpholinophenyl)acrylamide], the IC50 was < 20 nM on EGFR mutant L858R/T790M; < 20 nM against JAK3; < 20 nM at EGFR mutant Del19/T790M; < 20 nM in assay [1]; 20 to 200 nM at SYK; < 20 nM in assay [2]. The IC50 is > 1000 nM in the assay on H2073 (EGFR wildtype); < 20 nM against EGFR mutant T790M; > 1000 nM against KDR; < 20 nM in [3]; < 20 nM on EGFR mutant L858R. Also, the “Selectivity … vs mutant H2073/PC9 (fold)” value in assay [1] was >200 fold. Further, in assay [2], the “Selectivity … vs mutant H2073/H1975 (fold)” value is listed as >200 fold.
In the case of `C=CC(=O)Nc1cc(Nc2ncc(C)c(-n3cc(CN4CCC4)cn3)n2)c(OC)cc1N1CCN(C)CC1` [Compound 36, N-(5-(4-(4-(azetidin-1-ylmethyl)-1H-pyrazol-1-yl)-5-methylpyrimidin-2-ylamino)-4-methoxy-2-(4-methylpiperazin-1-yl)phenyl)acrylamide], the IC50 on EGFR mutant L858R/T790M is < 20 nM; against JAK3, < 20 nM; on EGFR mutant Del19/T790M, < 20 nM; in assay [1] it was 20 to 200 nM; against SYK, > 1000 nM; in assay [2], 20 to 200 nM. Also, the IC50 in the assay on H2073 (EGFR wildtype) was > 1000 nM; on EGFR mutant T790M, < 20 nM; against KDR it was > 1000 nM; in assay [3], < 20 nM; at EGFR mutant L858R, < 20 nM. Also, in [1], the “Selectivity … vs mutant H2073/PC9 (fold)” value was 20-100 fold. In addition, in assay [2], the “Selectivity … vs mutant H2073/H1975 (fold)” value is 20-100 fold.
As for `C=CC(=O)Nc1cc(Nc2ncc(C)c(-n3cc(CN4CCC4)c(C4CC4)n3)n2)c(OC)cc1N1CCOCC1` [Compound 123, N-(5-(4-(4-(azetidin-1-ylmethyl)-3-cyclopropyl-1H-pyrazol-1-yl)-5-methylpyrimidin-2-ylamino)-4-methoxy-2-morpholinophenyl)acrylamide], the IC50 at EGFR mutant L858R/T790M is < 20 nM; on JAK3 it was < 20 nM; at EGFR mutant Del19/T790M, < 20 nM; in assay [1] it was < 20 nM; at SYK, 201 to 1000 nM; in assay [2], < 20 nM. The IC50 in the assay on H2073 (EGFR wildtype) is > 1000 nM; at EGFR mutant T790M it was < 20 nM; against KDR, > 1000 nM; in assay [3], < 20 nM; on EGFR mutant L858R it was < 20 nM. For the same compound, the “Selectivity … vs mutant H2073/PC9 (fold)” value in [1] was >200 fold. Also, the “Selectivity … vs mutant H2073/H1975 (fold)” value in [2] is >200 fold.
